Assay results published in the NIST ThermoML archive (doi:10.1016/j.jct.2006.01.013).
Numbers after ± are expanded uncertainties.

Conditions: 101.33 kPa, Liquid

CCCCCC[n+]1ccn(C)c1.O=S(=O)([N-]S(=O)(=O)C(F)(F)F)C(F)(F)F
mass density (290.95 K): 1378.1 ± 0.8 kg/m3
mass density (292.95 K): 1376.3 ± 0.8 kg/m3
mass density (294.95 K): 1374.4 ± 0.8 kg/m3
mass density (296.95 K): 1372.6 ± 0.8 kg/m3
mass density (299 K): 1370.8 ± 0.8 kg/m3
mass density (301 K): 1369 ± 0.8 kg/m3
mass density (303 K): 1367.2 ± 0.8 kg/m3
mass density (305.05 K): 1365.3 ± 0.8 kg/m3
mass density (307.05 K): 1363.5 ± 0.8 kg/m3
